Measurements: ChEMBL document CHEMBL2010750, “Penicillin inhibitors of purple acid phosphatase” (Bioorg Med Chem Lett, 2012)
The source made the active and inactive calls. The rule behind the calls is not given here.

Columns and labels:
[1] = organism: Sus scrofa; experiment: Competitive inhibition of pig PAP using para-nitrophenol as substrate at pH 4.9 preincubated for 10 mins by UV-visible spectrophotometry
[2] = organism: Sus scrofa; experiment: Uncompetitive inhibition of pig PAP using para-nitrophenol as substrate at pH 4.9 preincubated for 10 mins by UV-visible spectrophotometry

Row | Kic [1] | Kiuc [2] | Structure (SMILES)
1 | 12 µM | inactive | CC1(C)S[C@@H]2[C@H](NC(=O)c3ccc(C(=O)c4ccc(Cl)cc4)cc3)C(=O)N2[C@H]1C(=O)O
2 | 241 µM | 491 µM | CC1(C)S[C@@H]2[C@H](NC(=O)c3cccc(C(=O)N4CCCCC4)c3)C(=O)N2[C@H]1C(=O)O
3 | inactive | inactive | CC1(C)S[C@@H]2[C@H](NC(=O)Cc3ccccc3)C(=O)N2[C@H]1C(=O)O
4 | 60 µM | inactive | Cc1ccc(C(=O)c2cccc(C(=O)N[C@@H]3C(=O)N4[C@@H]3SC(C)(C)[C@@H]4C(=O)O)c2)cc1
5 | 53 µM | inactive | CC(=O)Oc1ccc(C(=O)N[C@@H]2C(=O)N3[C@@H]2SC(C)(C)[C@@H]3C(=O)O)cc1
6 | 17 µM | inactive | CC1(C)S[C@@H]2[C@H](NC(=O)c3ccc(C(=O)c4ccc([N+](=O)[O-])cc4)cc3)C(=O)N2[C@H]1C(=O)O
7 | 32 µM | inactive | CC1(C)S[C@@H]2[C@H](NC(=O)c3ccc(C(=O)c4ccccc4Cl)cc3)C(=O)N2[C@H]1C(=O)O
8 | 26 µM | inactive | CC1(C)S[C@@H]2[C@H](NC(=O)c3ccc(C(=O)c4ccccc4)cc3)C(=O)N2[C@H]1C(=O)O
9 | 23 µM | inactive | CC1(C)S[C@@H]2[C@H](NC(=O)c3ccc(C(=O)c4cccc([N+](=O)[O-])c4)cc3)C(=O)N2[C@H]1C(=O)O
